Data from PMC11288027, “Exploring novel microbial metabolites and drugs for inhibiting Clostridioides difficile” (mSphere, 2024).
Converted amounts (≈) assume the structure as drawn. “And” between values parts separate entries of the source, which are not always exact repeats. Equal values may be shown once. Where a name gives a salt, the structure may show the parent alone. Read-outs that look alike come from different tables or passages of the source.

Legend:
[1] = tested on: Bif. angulatum; assay: MIC against human gut microbiota; assay type: cell-based, Bifidobacterium angulatum; conditions: Bifidobacterium angulatum, read-out: minimum inhibitory concentration (MIC)
[2] = tested on: L. brevis; assay: MIC against human gut microbiota; assay type: cell-based, Lactobacillus brevis; conditions: Levilactobacillus brevis
[3] = tested on: B. dorei; assay: MIC against human gut microbiota; assay type: cell-based, Bacteroides dorei; conditions: Phocaeicola dorei, read-out: minimum inhibitory concentration (MIC)
[4] = tested on: Bif. longum; assay: MIC against human gut microbiota; assay type: cell-based, Bifidobacterium longum; conditions: Bifidobacterium longum
[5] = tested on: C. difficile clinical isolates; assay: MIC against a panel of 20 C. difficile clinical isolates (broth microdilution); assay type: cell-based, Clostridioides difficile; conditions: Clostridioides difficile
[6] = tested on: L. casei; assay: MIC against human gut microbiota; assay type: cell-based; conditions: Lacticaseibacillus casei
[7] = tested on: embryo development in mice; set-up: method as in PMID 19079959; conditions: cited from earlier work
[8] = tested on: E. fecalis; assay: MIC against human gut microbiota; assay type: cell-based, Enterococcus faecalis; conditions: Enterococcus faecalis, read-out: minimum inhibitory concentration (MIC)
[9] = tested on: C. difficile ATCC BAA-1870; assay: Time-kill assay at 5 × MIC; conditions: C. difficile ATCC BAA-1870, ~10^6 CFU/mL, up to 24 h
[10] = tested on: Bif. adolescentis; assay: MIC against human gut microbiota; assay type: cell-based, Bifidobacterium adolescentis; conditions: Bifidobacterium adolescentis, read-out: minimum inhibitory concentration (MIC)
[11] = tested on: Bif. breve; assay: MIC against human gut microbiota; assay type: cell-based, Bifidobacterium breve; conditions: Bifidobacterium breve
[12] = tested on: L. rhamanosus; assay: MIC against human gut microbiota; assay type: cell-based, Lactobacillus rhamnoosus; conditions: Lactobacillus
[13] = tested on: B. fragilis; assay: MIC against human gut microbiota; assay type: cell-based, Bacteroides fragilis; conditions: for MIC: Bacteroides fragilis, read-out: minimum inhibitory concentration (MIC)
[14] = tested on: C. difficile ATCC BAA-1870; assay: MIC of active hits by broth microdilution; conditions: C. difficile ATCC BAA-1870, 48 h anaerobic; for MIC: Clostridioides difficile, ATCCBAA1870, 48 h
[15] = tested on: E. faecium; assay: MIC against human gut microbiota; assay type: cell-based, Enterococcus faecium; conditions: Enterococcus faecium, read-out: minimum inhibitory concentration (MIC)
[16] = tested on: mice; conditions: administered orally; cited from earlier work
[17] = tested on: Acinetobacter baumannii; set-up: method as in PMID 26414088; conditions: cited from earlier work
[18] = tested on: S. aureus; set-up: method as in PMID 26414088; conditions: cited from earlier work
[19] = tested on: Staphylococcus epidermidis; set-up: method as in PMID 26414088; conditions: cited from earlier work
[20] = B. fragilis HM- 718, BHIS broth, anaerobic

## C[C@H](CCC(=O)O)C[C@H](C)C[C@H](C)C(=O)/C=C(\O)[C@H](C)C[C@H](C)C/C=C/[C@@H](C)[C@@H](O)[C@@H](C)[C@@H](O)C[C@@H]1CC[C@@](C)([C@H]2CC[C@@](C)([C@@H](C)O)O2)O1 [Ionomycin (calcium salt)]
[1]
  MIC: 64 µg/mL
[2]; ATCC14864, read-out: minimum inhibitory concentration (MIC)
  MIC: ≥ 256 µg/mL
[3]
  MIC: > 256 µg/mL
[4]; read-out: minimum inhibitory concentration (MIC), Bif. longum HM- 845, BHIS broth, anaerobic
  MIC: > 256 µg/mL
[4]; read-out: minimum inhibitory concentration (MIC), Bif. longum HM- 846, BHIS broth, anaerobic
  MIC: 64 µg/mL
[4]; read-out: minimum inhibitory concentration (MIC), Bif. longum HM- 847, BHIS broth, anaerobic
  MIC: 128 µg/mL
[4]; read-out: minimum inhibitory concentration (MIC), Bif. longum HM- 848, BHIS broth, anaerobic
  MIC: 256 µg/mL
[5]
  MIC50: 1 µg/mL
  MIC90: 2 µg/mL
[5]; 48 h
  MIC50: 1 µg/mL
[5]; ATCC630, read-out: minimum inhibitory concentration (MIC)
  MIC: 0.5 µg/mL
[5]; ATCC43255, read-out: minimum inhibitory concentration (MIC)
  MIC: 1 µg/mL
[5]; ATCCBAA1870, read-out: minimum inhibitory concentration (MIC)
  MIC: 1 µg/mL
[6]; ATCC334, read-out: minimum inhibitory concentration (MIC)
  MIC: 32 µg/mL
[7]
  toxicity on embryo development: no toxicity
[8]
  MIC: 16 µg/mL
[9]
  time to bactericidal effect: 8 h
  time to eliminate / clear C. difficile: 12 h
[10]
  MIC: 16 µg/mL
[11]; ATCC15700, read-out: minimum inhibitory concentration (MIC)
  MIC: > 256 µg/mL
[12]; ATCC53103, read-out: minimum inhibitory concentration (MIC)
  MIC: > 256 µg/mL
[13]; [20]
  minimum inhibitory concentration (MIC): >256 µg/mL
[13]
  MIC: > 256 µg/mL
[14]
  MIC (μM): 4 µM
  MIC: 2.99 µg/mL
[15]
  MIC: 32 µg/mL

## Oc1c(Br)cc(Br)c2cccnc12 [Broxyquinoline]
[16]
  LD50: 7.4 g/kg
[1]; Bif. angulatum HM- 1189, BHIS broth, anaerobic
  MIC: 8 µg/mL (≈ 26.4 µM)
[2]; ATCC14864, L. brevis ATCC-14864, MRS broth, 5% CO2, read-out: minimum inhibitory concentration (MIC)
  MIC: 64 µg/mL (≈ 211 µM)
[3]; B. dorei HM- 719, BHIS broth, anaerobic
  MIC: 8 µg/mL (≈ 26.4 µM)
[4]; Bif. longum HM- 845, BHIS broth, anaerobic, read-out: minimum inhibitory concentration (MIC)
  MIC: > 256 µg/mL
[4]; Bif. longum HM- 846, BHIS broth, anaerobic, read-out: minimum inhibitory concentration (MIC)
  MIC: 128 µg/mL (≈ 423 µM)
[4]; Bif. longum HM- 847, BHIS broth, anaerobic, read-out: minimum inhibitory concentration (MIC)
  MIC: 32 µg/mL (≈ 106 µM)
[4]; Bif. longum HM- 848, BHIS broth, anaerobic, read-out: minimum inhibitory concentration (MIC)
  MIC: 64 µg/mL (≈ 211 µM)
[5]; 48 h, concentration that inhibited 50% of the 20 C. difficile clinical isolates, read-out: MIC50
  MIC50: 0.125 µg/mL (≈ 0.413 µM)
[5]; ATCC630, C. difficile ATCC 630, read-out: minimum inhibitory concentration (MIC)
  MIC: 1 µg/mL (≈ 3.3 µM)
[5]; ATCC43255, C. difficile ATCC 43255, read-out: minimum inhibitory concentration (MIC)
  MIC: 0.25 µg/mL (≈ 0.825 µM)
[5]; ATCCBAA1870, C. difficile ATCC BAA-1870 (Ribotype-027), purchased compounds, panel test, read-out: minimum inhibitory concentration (MIC)
  MIC: 0.125 µg/mL (≈ 0.413 µM)
[5]; C. difficile CD-1 (Ribotype-027), read-out: minimum inhibitory concentration (MIC)
  MIC: 0.25 µg/mL (≈ 0.825 µM)
[5]; C. difficile CD-6 (Ribotype-027), read-out: minimum inhibitory concentration (MIC)
  MIC: 0.25 µg/mL (≈ 0.825 µM)
[5]; C. difficile CD-10(Ribotype-027), read-out: minimum inhibitory concentration (MIC)
  MIC: 0.125 µg/mL (≈ 0.413 µM)
[5]; C. difficile CD-12, read-out: minimum inhibitory concentration (MIC)
  MIC: 0.125 µg/mL (≈ 0.413 µM)
[5]; C. difficile CD-13, read-out: minimum inhibitory concentration (MIC)
  MIC: 0.03 µg/mL (≈ 0.099 µM)
[5]; C. difficile CD-15, read-out: minimum inhibitory concentration (MIC)
  MIC: 0.25 µg/mL (≈ 0.825 µM)
[5]; C. difficile CD-22, read-out: minimum inhibitory concentration (MIC)
  MIC: 0.125 µg/mL (≈ 0.413 µM)
[5]; C. difficile CD-23, read-out: minimum inhibitory concentration (MIC)
  MIC: 0.125 µg/mL (≈ 0.413 µM)
[5]; C. difficile CD-24, read-out: minimum inhibitory concentration (MIC)
  MIC: 0.015 µg/mL (≈ 0.0495 µM)
[5]; C. difficile CD-26 (Ribotype-027), read-out: minimum inhibitory concentration (MIC)
  MIC: 0.125 µg/mL (≈ 0.413 µM)
[5]; C. difficile CD-28, read-out: minimum inhibitory concentration (MIC)
  MIC: 0.06 µg/mL (≈ 0.198 µM)
[5]; C. difficile CD-29 (Ribotype-027), read-out: minimum inhibitory concentration (MIC)
  MIC: 0.06 µg/mL (≈ 0.198 µM)
[5]; C. difficile CD-30, read-out: minimum inhibitory concentration (MIC)
  MIC: 0.25 µg/mL (≈ 0.825 µM)
[5]; C. difficile NR-49302, read-out: minimum inhibitory concentration (MIC)
  MIC: 0.06 µg/mL (≈ 0.198 µM)
[5]; C. difficile NR-49304, read-out: minimum inhibitory concentration (MIC)
  MIC: 0.03 µg/mL (≈ 0.099 µM)
[5]; C. difficile NR-49308, read-out: minimum inhibitory concentration (MIC)
  MIC: 0.06 µg/mL (≈ 0.198 µM)
[5]; C. difficile NR-49319, read-out: minimum inhibitory concentration (MIC)
  MIC: 0.25 µg/mL (≈ 0.825 µM)
[5]; concentration that inhibited 50% of the 20 C. difficile clinical isolates, read-out: MIC50
  MIC50: 0.125 µg/mL (≈ 0.413 µM)
[5]; concentration that inhibited 90% of the 20 C. difficile clinical isolates, read-out: MIC90
  MIC90: 0.25 µg/mL (≈ 0.825 µM)
[6]; ATCC334, L. casei ATCC 334, MRS broth, 5% CO2, read-out: minimum inhibitory concentration (MIC)
  MIC: 32 µg/mL (≈ 106 µM)
[8]; E. fecalis HM-970, TSB, aerobic
  MIC: 16 µg/mL (≈ 52.8 µM)
[17]
  MIC: 12.5 µM and 4 µg/mL
[9]
  time to eliminate / clear C. difficile: 6 h
[10]; Bif. adolescentis HM- 633, BHIS broth, anaerobic
  MIC: 64 µg/mL (≈ 211 µM)
[18]
  MIC: 4 µg/mL (≈ 13.2 µM)
[11]; ATCC15700, Bif. breve ATCC 15700, BHIS broth, anaerobic, read-out: minimum inhibitory concentration (MIC)
  MIC: > 256 µg/mL
[19]
  MIC: 12.5 µM and 4 µg/mL
[12]; ATCC53103, L. rhamanosus ATCC-53103, MRS broth, 5% CO2, read-out: minimum inhibitory concentration (MIC)
  MIC: > 256 µg/mL
[13]; B. fragilis HM- 709, BHIS broth, anaerobic
  MIC: 8 µg/mL (≈ 26.4 µM)
[13]; [20]
  MIC: 16 µg/mL (≈ 52.8 µM)
[14]
  MIC (μM): 4 µM
  MIC: 1.21 µg/mL
[15]; E. faecium HM-202, TSB, aerobic
  MIC: 32 µg/mL (≈ 106 µM)
